Test results: ChEMBL document CHEMBL6103645, “Modular Synthesis of Bioactive Selenoheterocycles for Efficient Cancer Therapy via Electrochemical Selenylation/Cyclization” (J Med Chem, 2025)
Active and inactive are the calls of the source. No cut-off for these calls is given here.

What was measured:
NCI-H460 [1] = test: Antitumor activity against human NCI-H460 cells xenografted in athymic nude mouse assessed as tumor growth inhibition at 5 mg/kg, iv administered every 2 days and measured after 2 weeks; type: functional; details: NCI-H460, 336 h, read-out: TGI
NCI-H460 [2] = test: Antitumor activity against human NCI-H460 cells xenografted in athymic nude mouse assessed as change in tumor weight at 10 to 20 mg/kg, iv administered every 2 days and measured after 2 weeks; type: functional, organism-based; details: dose 10-20 mg/kg
NCI-H460 [3] = test: Anti-tumor activity against human NCI-H460 cells assessed as cell viability incubated for 48 hrs by CCK-8 assay; type: functional, cell-based; details: NCI-H460, 48 h
HT-29 = test: Anti-tumor activity against human HT-29 cells assessed as cell viability incubated for 48 hrs by CCK-8 assay; type: functional, cell-based
MCF7 = test: Anti-tumor activity against human MCF7 cells assessed as cell viability incubated for 48 hrs by CCK-8 assay; type: functional, cell-based
HeLa = test: Anti-tumor activity against human HeLa cells assessed as cell viability incubated for 48 hrs by CCK-8 assay; type: functional, cell-based
NCI-H460 [4] = test: Inhibition of colony formation in human NCI-H460 cells assessed as reduction in colony formation rate upto 12.5 uM incubated for 14 days by crystal violet staining based analysis; type: functional, cell-based; details: time 14.0 day
NCI-H460 [5] = test: Anti-migratory activity against human NCI-H460 cells assessed as inhibition of cell migration at 500 nM measured for 48 hrs by wound healing assay; type: functional, cell-based
NCI-H460 [6] = test: Inhibition of cell invasion in human NCI-H460 cells assessed as decrease in number of invading cells at 500 nM incubated for 48 hrs by transwell assay; type: functional, cell-based
NCI-H460 [7] = test: Inhibition of epithelial mesenchymal transition in human NCI-H460 cells assessed as decrease in N-cadherin protein expression by Western blotting analysis; type: functional, cell-based
NCI-H460 [8] = test: Inhibition of epithelial mesenchymal transition in human NCI-H460 cells assessed as increase in E-cadherin protein expression by Western blotting analysis; type: functional, cell-based
NCI-H460 [9] = test: Induction of apoptosis in human NCI-H460 cells assessed as apoptosis rate at 500 nM incubated for 24 hrs by annexin V-FITC/PI staining based flow cytometry analysis relative to control; type: functional
NCI-H460 [10] = test: Induction of apoptosis in human NCI-H460 cells assessed as increase in BAX level at 500 nM incubated for 24 hrs by Western blot analysis; type: functional, cell-based
NCI-H460 [11] = test: Induction of apoptosis in human NCI-H460 cells assessed as increase in caspase-3 level at 500 nM incubated for 24 hrs by Western blot analysis; type: functional, cell-based
NCI-H460 [12] = test: Induction of apoptosis in human NCI-H460 cells assessed as downregulation of Bcl2 expression at 500 nM incubated for 24 hrs by Western blot analysis; type: functional, cell-based
NCI-H460 [13] = test: Induction of DNA damage in human NCI-H460 cells assessed as increase in gammaH2AX positive cells by DAPI staining based confocal laser scanning microscopic analysis; type: functional, cell-based
NCI-H460 [14] = test: Induction of DNA damage in human NCI-H460 cells assessed as increase in gammaH2AX positive cells by immunofluorescence analysis; type: functional, cell-based
NCI-H460 [15] = test: Upregulation of gamma-H2AX expression in human NCI-H460 cells by Western blot analysis; type: functional, cell-based
NCI-H460 [16] = test: Effect on DDX10 level in human NCI-H460 cells by TPP analysis; type: functional, cell-based
[17] = target: Probable ATP-dependent RNA helicase DDX10 (Homo sapiens) (UniProt Q13206); test: Binding affinity to DDX10 human NCI-H460 cells incubated for 60 mins at 37 to 67 degreeC by CETSA assay; type: cell-based
NCI-H460 [18] = test: Downregulation of DDX10 expression in human NCI-H460 cells; type: functional, cell-based
NCI-H460 [19] = test: Anti-tumor activity against DDX10 knockdown human NCI-H460 cells assessed as inhibition of cell viability; type: functional, cell-based
[20] = Hemolytic activity in BALB/c mouse Red blood cells assessed as effect on morphological structure at 10 to 100 uM incubated for 2 hrs; type: toxicity, cell-based; details: erythrocyte, dose 10-100 µM
[21] = Hemolytic activity in BALB/c mouse Red blood cells assessed as hemolysis at 10 to 100 uM incubated for 2 hrs; type: toxicity, cell-based, Erythrocyte; details: dose 10-100 µM, read-out: Activity
[22] = Toxicity in male athymic nude mouse assessed as change in body weight at 20 to 80 mg/kg, iv administered every 2 days and measured after 2 weeks; type: organism-based; details: in vivo, 336 h, dose 20-80 mg/kg
[23] = Toxicity in male athymic nude mouse assessed as heart damage at 20 to 80 mg/kg, iv administered every 2 days and measured after 2 weeks; type: organism-based; details: in vivo, 336 h, dose 20-80 mg/kg
[24] = Toxicity in male athymic nude mouse assessed as liver damage at 20 to 80 mg/kg, iv administered every 2 days and measured after 2 weeks; type: organism-based; details: in vivo, 336 h, dose 20-80 mg/kg
[25] = Toxicity in male athymic nude mouse assessed as spleen damage at 20 to 80 mg/kg, iv administered every 2 days and measured after 2 weeks; type: organism-based; details: in vivo, 336 h, dose 20-80 mg/kg
[26] = Toxicity in male athymic nude mouse assessed as lung damage at 20 to 80 mg/kg, iv administered every 2 days and measured after 2 weeks; type: organism-based; details: in vivo, 336 h, dose 20-80 mg/kg
[27] = Toxicity in male athymic nude mouse assessed as kidney damage at 20 to 80 mg/kg, iv administered every 2 days and measured after 2 weeks; type: organism-based; details: in vivo, 336 h, dose 20-80 mg/kg
[28] = Toxicity in iv dosed BALB/c mouse assessed as maximum tolerated dose administered every 2 days and measured after 2 weeks; type: organism-based; details: in vivo
NCI-H460 [29] = test: Antitumor activity against human NCI-H460 cells xenografted in iv dosed athymic nude mouse assessed as tumor growth inhibition administered every 2 days and measured after 2 weeks; type: functional, organism-based; details: dose 5-20 mg/kg
[30] = Toxicity in male athymic nude mouse assessed as change in body weight at 5 to 20 mg/kg, iv administered every 2 days and measured after 2 weeks; type: organism-based; details: in vivo, 336 h, dose 5-20 mg/kg
NCI-H460 [31] = test: Antitumor activity against human NCI-H460 cells xenografted in athymic nude mouse assessed as change in tumor weight at 5 mg/kg, iv administered every 2 days and measured after 2 weeks; type: functional, organism-based
NCI-H460 [32] = test: Antitumor activity against human NCI-H460 cells xenografted in athymic nude mouse assessed as change in tumor volume at 5 mg/kg, iv administered every 2 days and measured after 2 weeks; type: functional, organism-based
NCI-H460 [33] = test: Antitumor activity against human NCI-H460 cells xenografted in athymic nude mouse assessed as tumor growth inhibition at 10 mg/kg, iv administered every 2 days and measured after 2 weeks; type: functional; details: NCI-H460, 336 h, read-out: TGI
NCI-H460 [34] = test: Antitumor activity against human NCI-H460 cells xenografted in athymic nude mouse assessed as tumor growth inhibition at 20 mg/kg, iv administered every 2 days and measured after 2 weeks; type: functional; details: NCI-H460, 336 h, read-out: TGI
NCI-H460 [35] = test: Antitumor activity against human NCI-H460 cells xenografted in athymic nude mouse assessed as increase in gamma-H2AX level in tumor at 5 mg/kg, iv administered every 2 days and measured after 2 weeks by immunofluorescence assay; type: functional, organism-based
NCI-H460 [36] = test: Antitumor activity against human NCI-H460 cells xenografted in athymic nude mouse assessed as increase in gamma-H2AX level in tumor at 20 mg/kg, iv administered every 2 days and measured after 2 weeks by immunofluorescence assay; type: functional, organism-based
NCI-H460 [37] = test: Antitumor activity against human NCI-H460 cells xenografted in athymic nude mouse assessed as increase in gamma-H2AX level in tumor at 20 mg/kg, iv administered every 2 days and measured after 2 weeks by Western blot assay; type: functional, organism-based
[38] = Toxicity in male athymic nude mouse assessed as morphological changes in heart at 5 to 20 mg/kg, iv administered every 2 days and measured after 2 weeks by H and E staining based analysis; type: organism-based; details: in vivo, 336 h, dose 5-20 mg/kg
[39] = Toxicity in male athymic nude mouse assessed as morphological changes in liver at 5 to 20 mg/kg, iv administered every 2 days and measured after 2 weeks by H and E staining based analysis; type: organism-based; details: in vivo, 336 h, dose 5-20 mg/kg
[40] = Toxicity in male athymic nude mouse assessed as morphological changes in spleen at 5 to 20 mg/kg, iv administered every 2 days and measured after 2 weeks by H and E staining based analysis; type: organism-based; details: in vivo, 336 h, dose 5-20 mg/kg
[41] = Toxicity in male athymic nude mouse assessed as morphological changes in lung at 5 to 20 mg/kg, iv administered every 2 days and measured after 2 weeks by H and E staining based analysis; type: organism-based; details: in vivo, 336 h, dose 5-20 mg/kg
[42] = Toxicity in male athymic nude mouse assessed as morphological changes in kidney at 5 to 20 mg/kg, iv administered every 2 days and measured after 2 weeks by H and E staining based analysis; type: organism-based; details: in vivo, 336 h, dose 5-20 mg/kg
[43] = Toxicity in male athymic nude mouse assessed as tumor necrosis at 5 to 20 mg/kg, iv administered every 2 days and measured after 2 weeks by H and E staining based analysis; type: organism-based; details: in vivo, 336 h, dose 5-20 mg/kg
[44] = Toxicity in male athymic nude mouse assessed as lung metastasis at 5 to 20 mg/kg, iv administered every 2 days and measured after 2 weeks by H and E staining based analysis; type: organism-based; details: in vivo, 336 h, dose 5-20 mg/kg
[45] = Toxicity in male athymic nude mouse assessed as liver metastasis at 5 to 20 mg/kg, iv administered every 2 days and measured after 2 weeks by H and E staining based analysis; type: organism-based; details: in vivo, 336 h, dose 5-20 mg/kg
NCI-H460 [46] = test: Antitumor activity against human NCI-H460 cells xenografted in athymic nude mouse assessed as change in tumor weight at 10 mg/kg, iv administered every 2 days and measured after 2 weeks; type: functional, organism-based
NCI-H460 [47] = test: Antitumor activity against human NCI-H460 cells xenografted in athymic nude mouse assessed as change in tumor volume at 10 mg/kg, iv administered every 2 days and measured after 2 weeks; type: functional, organism-based
[48] = Toxicity in male athymic nude mouse assessed as alveolar wall hyperplasia at 10 mg/kg, iv administered every 2 days and measured after 2 weeks by H and E staining based analysis; type: organism-based; details: in vivo, 336 h

Sequence of Probable ATP-dependent RNA helicase DDX10 (Homo sapiens) (Q13206 whole entry): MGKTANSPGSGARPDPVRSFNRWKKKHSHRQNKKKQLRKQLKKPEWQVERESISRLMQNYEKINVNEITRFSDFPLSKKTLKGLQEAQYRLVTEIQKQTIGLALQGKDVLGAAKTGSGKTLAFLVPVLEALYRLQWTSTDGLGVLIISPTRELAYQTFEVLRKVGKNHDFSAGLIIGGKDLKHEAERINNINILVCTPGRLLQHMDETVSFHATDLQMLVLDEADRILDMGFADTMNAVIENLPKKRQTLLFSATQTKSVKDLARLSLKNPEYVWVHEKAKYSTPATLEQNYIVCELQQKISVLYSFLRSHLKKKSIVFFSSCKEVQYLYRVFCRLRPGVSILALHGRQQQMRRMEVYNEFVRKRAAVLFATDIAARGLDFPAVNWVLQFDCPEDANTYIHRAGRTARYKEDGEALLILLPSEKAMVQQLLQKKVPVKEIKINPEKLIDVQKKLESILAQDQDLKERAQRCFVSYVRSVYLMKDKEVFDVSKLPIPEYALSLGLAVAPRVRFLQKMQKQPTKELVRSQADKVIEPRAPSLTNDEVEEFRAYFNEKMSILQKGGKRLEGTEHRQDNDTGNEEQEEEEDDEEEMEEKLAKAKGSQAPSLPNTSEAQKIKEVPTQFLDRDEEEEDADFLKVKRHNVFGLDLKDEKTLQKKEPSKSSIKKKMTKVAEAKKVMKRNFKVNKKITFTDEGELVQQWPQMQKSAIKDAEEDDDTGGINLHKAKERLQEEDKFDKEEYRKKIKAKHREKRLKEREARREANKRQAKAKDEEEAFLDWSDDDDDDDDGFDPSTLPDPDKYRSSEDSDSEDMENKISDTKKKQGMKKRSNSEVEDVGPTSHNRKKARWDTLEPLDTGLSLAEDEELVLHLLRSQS

COc1ccc([Se]c2c(-c3ccccc3)ncc3cccnc23)cc1
inhibition in vivo at 5 mg/kg (NCI-H460 [1]): 60% | Activity (NCI-H460 [2]): inactive | IC50 (NCI-H460 [3]): 1.59 µM | Activity (HT-29): inactive | Activity (MCF7): inactive | Activity (HeLa): inactive | inhibition (NCI-H460 [4]): Active | Activity (NCI-H460 [5]): Active | inhibition (NCI-H460 [6]): Active | N-cadherin expression decrease (qualitative activity) (NCI-H460 [7]): Active | inhibition (NCI-H460 [8]): Active | Activity (NCI-H460 [9]): 42.6% | Activity (NCI-H460 [10]): Active | Activity (NCI-H460 [11]): Active | Activity (NCI-H460 [12]): Active | Activity (NCI-H460 [13]): Active | Activity (NCI-H460 [14]): Active | Activity (NCI-H460 [15]): Active | Activity (NCI-H460 [16]): Active | Activity [17]: Active | Activity (NCI-H460 [18]): Active | Activity (NCI-H460 [19]): Active | Activity [20]: Non-toxic | hemolysis at 2 h, 100 µM [21]: < 1% | Activity [22]: Non-toxic | Activity [23]: Non-toxic | Activity [24]: Non-toxic | Activity [25]: Non-toxic | Activity [26]: Non-toxic | Activity [27]: Non-toxic | MTD at 336 h [28]: 160 mg/kg | TGI (NCI-H460 [29]): Dose-dependent-effect | Activity [30]: Non-toxic | Activity (NCI-H460 [31]): Active | Activity (NCI-H460 [32]): Active | inhibition in vivo at 10 mg/kg (NCI-H460 [33]): 78% | inhibition in vivo at 20 mg/kg (NCI-H460 [34]): 88% | Activity (NCI-H460 [35]): Active | Activity (NCI-H460 [36]): Active | Activity (NCI-H460 [37]): Active | Activity [38]: Non-toxic | Activity [39]: Non-toxic | Activity [40]: Non-toxic | Activity [41]: Non-toxic | Activity [42]: Non-toxic | Activity [43]: Non-toxic | Activity [44]: Non-toxic | Activity [45]: Non-toxic

CC[C@@]1(O)C(=O)OCc2c1cc1n(c2=O)Cc2cc3ccccc3nc2-1 [CAMPTOTHECIN]
IC50 (NCI-H460 [3]): 2.46 µM | inhibition (NCI-H460 [7]): Active | inhibition (NCI-H460 [8]): Active | Activity (NCI-H460 [9]): 39.1% | Activity (NCI-H460 [15]): Active | Activity (NCI-H460 [46]): Active | Activity (NCI-H460 [47]): Active | inhibition in vivo at 10 mg/kg (NCI-H460 [33]): 66% | Activity [48]: Toxic

COc1ccc([Se]c2c(-c3ccccc3)ncc3ccccc23)cc1
IC50 (NCI-H460 [3]): 6.39 µM | Activity (HT-29): inactive | Activity (MCF7): inactive | Activity (HeLa): inactive | inhibition (NCI-H460 [4]): Active | Activity (NCI-H460 [5]): Active | inhibition (NCI-H460 [6]): Active | N-cadherin expression decrease (qualitative activity) (NCI-H460 [7]): Active | inhibition (NCI-H460 [8]): Active | Activity (NCI-H460 [9]): 20.8% | Activity (NCI-H460 [10]): Active | Activity (NCI-H460 [11]): Active | Activity (NCI-H460 [12]): Active | Activity (NCI-H460 [13]): Active | Activity (NCI-H460 [14]): Active | Activity (NCI-H460 [15]): Active | Activity [20]: Non-toxic | hemolysis at 2 h, 100 µM [21]: < 1%
